Values quoted from earlier work in paper PMC9549396 (Proceedings of the National Academy of Sciences of the …, 2022).

Molecular target: PI3KC2β (Homo sapiens, UniProt O00750)
Assay: lipid kinase activity inhibition
Type: biochemical

PI3KC2β, sequence (O00750 whole entry): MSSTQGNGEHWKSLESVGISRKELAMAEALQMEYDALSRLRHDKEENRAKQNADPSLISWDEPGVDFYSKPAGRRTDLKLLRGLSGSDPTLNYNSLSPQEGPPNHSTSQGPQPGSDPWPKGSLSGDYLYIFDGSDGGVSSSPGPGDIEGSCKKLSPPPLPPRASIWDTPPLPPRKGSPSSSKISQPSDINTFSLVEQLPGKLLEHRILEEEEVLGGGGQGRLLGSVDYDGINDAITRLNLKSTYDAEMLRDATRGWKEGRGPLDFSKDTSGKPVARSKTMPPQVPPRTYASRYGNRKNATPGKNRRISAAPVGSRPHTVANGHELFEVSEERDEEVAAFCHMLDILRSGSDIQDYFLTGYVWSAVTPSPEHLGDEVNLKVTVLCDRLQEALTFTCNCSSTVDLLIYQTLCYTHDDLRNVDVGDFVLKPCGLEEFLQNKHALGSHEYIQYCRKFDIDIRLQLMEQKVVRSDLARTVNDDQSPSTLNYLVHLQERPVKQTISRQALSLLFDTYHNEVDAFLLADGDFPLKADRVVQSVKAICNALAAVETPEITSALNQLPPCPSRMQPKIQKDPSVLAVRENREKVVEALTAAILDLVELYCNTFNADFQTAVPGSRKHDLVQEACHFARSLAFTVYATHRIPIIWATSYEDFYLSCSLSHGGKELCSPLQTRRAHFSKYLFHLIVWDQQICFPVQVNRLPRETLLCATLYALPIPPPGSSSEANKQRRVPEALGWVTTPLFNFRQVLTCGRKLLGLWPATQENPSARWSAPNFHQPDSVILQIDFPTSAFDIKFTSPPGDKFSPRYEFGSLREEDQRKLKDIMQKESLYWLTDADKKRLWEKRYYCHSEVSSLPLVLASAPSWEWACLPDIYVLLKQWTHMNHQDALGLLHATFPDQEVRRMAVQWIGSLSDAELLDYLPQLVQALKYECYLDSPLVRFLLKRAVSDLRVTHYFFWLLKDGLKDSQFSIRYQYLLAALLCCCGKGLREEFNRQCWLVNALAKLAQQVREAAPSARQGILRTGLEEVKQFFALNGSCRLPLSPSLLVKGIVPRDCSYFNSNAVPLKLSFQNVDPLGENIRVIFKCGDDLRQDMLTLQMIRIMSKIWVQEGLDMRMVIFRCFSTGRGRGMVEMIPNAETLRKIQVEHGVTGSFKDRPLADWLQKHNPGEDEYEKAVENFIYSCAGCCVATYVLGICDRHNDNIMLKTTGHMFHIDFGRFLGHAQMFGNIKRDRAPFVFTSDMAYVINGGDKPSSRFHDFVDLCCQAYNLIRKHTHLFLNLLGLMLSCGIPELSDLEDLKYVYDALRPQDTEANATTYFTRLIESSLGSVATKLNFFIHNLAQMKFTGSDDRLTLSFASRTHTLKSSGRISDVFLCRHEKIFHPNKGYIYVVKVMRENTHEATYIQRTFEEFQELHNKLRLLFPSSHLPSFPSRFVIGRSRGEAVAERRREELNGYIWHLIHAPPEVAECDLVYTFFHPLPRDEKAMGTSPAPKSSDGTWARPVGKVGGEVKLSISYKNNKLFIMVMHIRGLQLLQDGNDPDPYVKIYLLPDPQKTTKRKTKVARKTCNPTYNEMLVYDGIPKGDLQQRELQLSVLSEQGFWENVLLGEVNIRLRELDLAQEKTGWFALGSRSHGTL

- IC50: 1500 nM
Substance: PITCOIN2
